In publication PMC7414126 (Scientific Reports, 2020):

Legend:
[1] = biological target: T1, hH2R (Homo sapiens, UniProt P25021); assay: β-Arrestin2 recruitment assay (split-luciferase complementation), HEK293T-ARRB2-H2R cells; type: cell-based; design: expressed in transfected cells; host or cells: HEK293T-ARRB2-H2R cell line; details: read-out: pKb (β-arrestin2 recruitment) (converted)
Experimental: One day prior to the experiment, the cells were detached with trypsin/EDTA (0.05%/0.2%) and were centrifuged (500 x g, 5 min). The cells were resuspended in Leibovitz’ L-15 medium + 5% FCS + 10 mM HEPES and the density of the suspension was adjusted to 1.25 x 10^6 cells/mL (agonist mode) or 1.4 x 10^6 cells/mL (antagonist mode). 80 µL (agonist mode) or 70 µL (antagonist mode) of the cell suspension were seeded in white, tissue culture-treated, flat bottom 96-well microtiter plates (Brand, Wertheim, Germany). The cells were incubated at 37 °C overnight in a water saturated atmosphere w/o additional CO2. […] In the meantime, serial dilutions of the tested compounds (10-fold concentrated with respect to the final concentration) were prepared in L-15 + 10 mM HEPES and pre-warmed to 37 °C. After the baseline-read, the dilutions of the test compounds (10 µL/well) were transferred to the 96-well plate. […] For the determination of antagonism, the dilutions of the test compounds (10 µL/well) were transferred to the 96-well plate directly after the addition of D-luciferin (as described above) and the baseline was recorded like in the agonist mode. […] Normalized data were fitted applying a four-parameter logistic fit yielding pIC50 values, which were then transformed into pKb values using the Cheng-Prusoff equation.^8 All data analysis was performed using Prism 5.0c (GraphPad, San Diego, CA, USA).

[2] = Chemical stability in binding buffer (HPLC); type: physicochemical; details: binding buffer pH 7.4, rt, 96 h incubation
Experimental: The chemical stability of the fluorescent H2R ligands UR-KAT478 (8), UR-KAT515 (9) and UR-KAT514 (10) was investigated at physiological pH (7.4) in binding buffer (12.5 mM MgCl2, 1 mM EDTA and 75 mM Tris/HCl, pH 7.4)^1 and in case of UR-KAT514 (10) as well in a mixture of DMSO/binding buffer 1:1. Incubation was started by addition of 27.5 μL of a 2.5 mM solution of the respective compounds in DMSO/Millipore H2O 1:1, which were freshly prepared from a 5 mM stock solution in DMSO, to 522.5 μL of binding buffer or DMSO/binding buffer 1:1 yielding a final concentration of […]. The samples were shaken for up to 4 days at 700 rpm. After indicated time periods, a 70 μL aliquot was taken and diluted with 70 µL of a mixture of MeCN, Millipore H2O and 10% aqueous TFA (60:90:1). Prior to HPLC analysis, the samples were stored at -20 °C. 50 μL of the resulting solution were analyzed by HPLC as described in the experimental section. The absorption was detected at 220 nm. The blank HPLC run was performed under identical conditions without any ligand.

[3] = biological target: T2, hH2R-Gsαs fusion protein (Homo sapiens, UniProt P25021); assay: Radioligand competition binding with [3H]UR-DE257 on Sf9 membranes; details: read-out: pKi (RL comp. binding Sf9 membranes) (converted)
T2 construct: made in house; host or cells: Sf9 insect cells (recombinant baculovirus), membrane preparation
T2 sequence (P25021+P63092 fused): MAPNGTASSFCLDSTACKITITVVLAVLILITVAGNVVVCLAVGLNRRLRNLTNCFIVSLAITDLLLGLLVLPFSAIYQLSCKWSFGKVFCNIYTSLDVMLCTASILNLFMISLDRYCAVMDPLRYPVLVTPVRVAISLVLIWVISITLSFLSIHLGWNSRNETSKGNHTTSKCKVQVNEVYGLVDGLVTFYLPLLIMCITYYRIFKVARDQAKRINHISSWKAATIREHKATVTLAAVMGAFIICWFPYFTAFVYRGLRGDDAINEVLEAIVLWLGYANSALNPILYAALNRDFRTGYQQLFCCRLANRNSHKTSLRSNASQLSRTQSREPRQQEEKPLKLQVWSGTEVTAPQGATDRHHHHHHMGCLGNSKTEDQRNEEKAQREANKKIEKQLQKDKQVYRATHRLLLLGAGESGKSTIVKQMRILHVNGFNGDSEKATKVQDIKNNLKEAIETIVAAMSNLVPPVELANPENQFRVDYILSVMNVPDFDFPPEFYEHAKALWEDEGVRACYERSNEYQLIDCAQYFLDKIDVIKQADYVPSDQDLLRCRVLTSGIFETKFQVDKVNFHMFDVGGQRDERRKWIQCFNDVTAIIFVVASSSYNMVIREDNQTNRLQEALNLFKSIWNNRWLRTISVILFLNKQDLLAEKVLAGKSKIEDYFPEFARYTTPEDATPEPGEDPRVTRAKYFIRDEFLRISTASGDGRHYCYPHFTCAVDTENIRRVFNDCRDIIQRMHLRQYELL
Experimental: All data analysis was performed using Prism 5.0c (GraphPad, San Diego, CA, USA).

[4] = biological target: T1, hH2R; assay: Flow cytometric saturation binding assay with HEK293T-hH2R-qs5-HA cells; design: expressed in transfected cells; host or cells: HEK293T-hH2R-qs5-HA cells; details: saturation binding at HEK293T-hH2R-qs5-HA cells; mean ± SEM; read-out: pKd (Flow cytometry) (converted)
Experimental: All flow cytometric measurements were performed with FACSCanto™II flow cytometer (Becton Dickinson, Heidelberg, Germany), equipped with an argon laser (488 nm) and a red diode laser (633 nm) (settings: FCS: A, log, 0 V; SSC: A, log, 252 V; ACP: A,H,W, log, 350 V or PerCP-Cy5-5: A,H, log 485 V or PE: A,H,W, log, 420 V) according to general protocols with minor modifications.^4,5 All measurements were performed in duplicate and recorded either in channel PerCP-Cy5 (Py-1, excitation: 488 nm), APC (BODIPY 630/650, excitation: 633 nm) or PE (TAMRA, excitation: 488 nm). Data acquisition was stopped after 10,000 gated events.
Cell culture and preparation of HEK293T-hH2R-qs5-HA cells was performed as described.^4 Briefly, cells were maintained in 25 or 175 cm^2 flasks (Sarstedt, Nümbrecht, Germany) in a humidified atmosphere (95% air, 5% CO2) at 37 °C using Dulbecco`s Modified Eagle`s Medium supplemented with 2 mM L-glutamine (Sigma-Aldrich, Munich, Germany), 10% FCS, 400 µg/mL geneticin (G418), and 100 µg/mL hygromycin B (AG Scientific, San Diego, CA, USA). On the day of the experiment, cells were detached with trypsin/EDTA (0.05%/0.2%) and centrifuged (500 x g, 5 min). The cell pellet was resuspended in Leibovitz’ L-15 medium containing 1% FCS and the cell density was adjusted to 1 x 10^6 cells/mL. The serial dilutions of the tested fluorescent ligands and famotidine (competitor, for non-specific binding) were prepared in DMSO/H2O (1:1, v/v). All incubation steps were performed in 96-well Primaria^TM plates (CORNING, NY, USA). 200 µL of the adjusted cell suspension were either added to 2 µL of DMSO/H2O (1:1, v/v, total binding) or to 2 µl of famotidine (300-fold excess over the fluorescent ligand, non-specific binding). Incubation was started by addition of 2 µL of the respective fluorescent ligand in different concentrations (100-fold concentrated with respect to the final concentration). […] Samples were transferred to 5 mL polystyrol FACS tubes (Sarstedt, Nümbrecht, Germany) and measured immediately. […]

T1 sequence (P25021 whole entry): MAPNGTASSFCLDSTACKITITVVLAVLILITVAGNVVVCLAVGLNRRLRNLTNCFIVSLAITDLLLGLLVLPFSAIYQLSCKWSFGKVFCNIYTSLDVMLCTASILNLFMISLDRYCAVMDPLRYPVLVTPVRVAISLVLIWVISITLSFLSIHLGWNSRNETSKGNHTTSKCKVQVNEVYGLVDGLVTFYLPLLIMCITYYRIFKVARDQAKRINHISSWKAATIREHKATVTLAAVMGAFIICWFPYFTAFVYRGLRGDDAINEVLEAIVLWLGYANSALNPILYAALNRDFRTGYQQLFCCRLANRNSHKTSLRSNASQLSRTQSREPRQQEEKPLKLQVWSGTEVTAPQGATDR

Cc1cc(/C=C/c2cc3c4c(c2)CCCN4CCC3)cc(C)[n+]1CCCCNc1c(NCCCOc2cccc(CN3CCCCC3)c2)c(=O)c1=O [Compound 8, (E)-1-(4-((3,4-Dioxo-2-((3-(3-(piperidin-1-ylmethyl)phenoxy)propyl)amino)cyclobut-1-en-1-yl)amino)butyl)-2,6-dimethyl-4-(2-(2,3,6,7-tetrahydro-1H,5H-pyrido[3,2,1-ij]quinolin-9-yl)vinyl)pyridin-1-ium]
Kb [1]: 16.6 nM | Chemical stability (decomposition) [2]: no decomposition | Ki [3]: 24 nM | Kd [4]: 74.1 nM
